What was measured:
[1] = target: MAPK14 (human) (UniProt Q16539); assay: Inhibition of MAPK14 Kinase Activity; conditions: concentration not given here
[2] = target: CDK2 (human) (UniProt P24941); assay: Enzyme Assay; conditions: concentration not given here

Chain of MAPK14 (human) (Q16539 whole entry, looked up): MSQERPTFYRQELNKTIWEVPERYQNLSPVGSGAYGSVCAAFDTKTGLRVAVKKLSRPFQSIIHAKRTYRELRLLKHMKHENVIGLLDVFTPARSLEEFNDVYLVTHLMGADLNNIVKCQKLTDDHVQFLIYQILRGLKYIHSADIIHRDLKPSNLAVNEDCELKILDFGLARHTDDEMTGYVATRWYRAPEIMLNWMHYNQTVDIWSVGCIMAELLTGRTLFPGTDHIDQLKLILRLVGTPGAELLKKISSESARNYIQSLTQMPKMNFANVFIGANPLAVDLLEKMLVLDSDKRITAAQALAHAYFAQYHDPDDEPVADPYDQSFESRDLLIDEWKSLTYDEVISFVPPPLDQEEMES

Row | inhibition [1] | inhibition [2] | Structure (SMILES)
1 | 8% | 44% | Cn1ccc(C2=C(c3cn(CCCO)c4ncccc34)C(=O)NC2=O)n1
2 | 31% | 30% | O=C1NC(=O)C(c2cn(CCCO)c3ncccc23)=C1c1cnccn1
3 | 2% | 89% | COc1ncc(C2=C(c3cn(CCCO)c4ncccc34)C(=O)NC2=O)c(OC)n1

— the Kinase Knowledgebase extract (Sharma et al. 2016)
